The structures appear in SMILES notation.

For one experiment, the system named is MV4-11 cells. As to the kind of experiment: Oncology cell growth assay (3-day proliferation, CellTiter-Glo). In kind it is cell-based. The following applies: Homo sapiens, MV4-11, 72 h, AML cell line MV4-11, 72 hours, compounds grouped by IC50 range, read-out: MV4-11 IC50 (inhibition of proliferation, gIC50). Summed up:
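MV4-11 AML cells (RPMI 1640, 10% FBS) plated at 3000 cells/well and exposed 72 h to compound at final 10 to 0.0045 μM (3-fold series). Viability read by CellTiter-Glo luminescence; gIC50 from four-parameter logistic fit between DMSO control and no-cell background.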
(In ATP-based viability assays light output follows the ATP content of the culture.)

The next experiment deals with T1, BRD4 BD1 (Homo sapiens, UniProt O60885).
T1 construct: made in house
Put plainly: AlphaScreen binding assay, BRD4 Bromodomain 1. The procedure, abridged: (§1)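 An AlphaScreen competition format was used with His-BRD4 BD1 or BD2 and biotin-H4 K5/8/12/16-acetyl peptide, each at matched final levels of 50 nM (BD1) or 100 nM (BD2). Incubation in HEPES/NaCl buffer with 0.1% BSA and 0.01% Triton X-100 ran ≥1 h before IC50 determination.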

Another experiment concerns the target T2, BRD4 BD2 (Homo sapiens, UniProt O60885).
T2 construct: made in house
Put plainly: AlphaScreen binding assay, BRD4 Bromodomain 2. The procedure, abridged: as §1

`COC(=O)N1c2ccc(-c3cnn(CCC(N)=O)c3)cc2N(C(=O)OC(C)C)C[C@@H]1C` [Example I-638]: the IC50 is more than 0.5 µM in the experiment with MV4-11 cells, 0.1 to 1 µM on BRD4 BD1 and 0.05 to 0.5 µM on BRD4 BD2.

Regarding `CC(=O)N1c2ccc(-c3ccc(C(=O)N4CCC[C@@H](N)C4)cc3)cc2N(C(=O)OC(C)C)C[C@@H]1C` [Example I-589], the IC50 with MV4-11 cells lay in the range of 0.1 to 0.5 µM; on BRD4 BD1, 0.1 to 1 µM; at BRD4 BD2, 0.05 to 0.5 µM.

Turning to `CC(=O)N1c2ccc(-c3cc(Cl)cc(S(C)(=O)=O)c3)cc2N(C(=O)C2CCC2)C[C@@H]1C` [Example I-1095], the IC50 is more than 0.5 µM with MV4-11 cells, 1 to 10 µM on BRD4 BD1 and more than 0.5 µM on BRD4 BD2.

For the compound `CC(C)OC(=O)N1C[C@H](C)N(C(=O)C2CC2)c2ccc(-c3cnn(CC(F)(F)F)c3)cc21` [Example I-619], the values for the IC50 in the experiment with MV4-11 cells, on BRD4 BD1 and at BRD4 BD2 were 0.1 to 0.5 µM, 0.1 to 1 µM and 0.05 to 0.5 µM, respectively.

As for `CC(=O)N1c2ccc(-c3cnn(C4CS(=O)(=O)C4)c3)cc2N(C(=O)OC2CCC2)C[C@@H]1C` [Example I-98, cyclobutyl (3S)-4-acetyl-7-[1-(1,1-dioxo-1λ^6-thietan-3-yl)-1H-pyrazol-4-yl]-3-methyl-1,2,3,4-tetrahydroquinoxaline-1-carboxylate], the IC50 lay within 0.1 to 0.5 µM in the experiment with MV4-11 cells, 0.1 to 1 µM on BRD4 BD1 and 0.05 to 0.5 µM at BRD4 BD2.

With `CC(=O)N1c2ccc(-c3cnn(CC(N)=O)c3)cc2N(C(=O)OC(C)C)C[C@@H]1C` [Example I-304], the IC50 in the experiment with MV4-11 cells was in the range of 0.1 to 0.5 µM; at BRD4 BD1, 0.1 to 1 µM; on BRD4 BD2, 0.05 to 0.5 µM.

`CC(=O)N1c2ccc(-c3ccc(S(=O)(=O)C(C)C)cc3)cc2N(C(=O)c2ccco2)C[C@@H]1C` [Example I-288]: the values for the IC50 in the experiment with MV4-11 cells, on BRD4 BD1 and at BRD4 BD2 were 0.1 to 0.5 µM, 1 to 10 µM and less than 0.05 µM, respectively.

Regarding `CC(=O)N1c2ccc(-c3cnn(CC4(C)COC4)c3)cc2N(C(=O)C2CC2)C[C@@H]1C` [Example I-124, (S)-1-(4-(cyclopropanecarbonyl)-2-methyl-6-(1-((3-methyloxetan-3-yl)methyl)-1H-pyrazol-4-yl)-3,4-dihydroquinoxalin-1(2H)-yl)ethanone], the IC50 in the experiment on MV4-11 cells is 0.1 to 0.5 µM; at BRD4 BD1, 1 to 10 µM; on BRD4 BD2 it was less than 0.05 µM.

`CCC(C)OC(=O)N1C[C@H](C)N(C(C)=O)c2ccc(-c3ccc(S(C)(=O)=O)cc3)cc21` (stereo partly drawn) [Example I-494]: the IC50 in the experiment with MV4-11 cells lay in the range of 0.1 to 0.5 µM; on BRD4 BD1, 0.1 to 1 µM; at BRD4 BD2, 0.05 to 0.5 µM.

Take `CC(=O)N1c2ccc(-c3cnn(CC(F)(F)F)c3)cc2N(C(=O)OC(C)C)C[C@@H]1C` [Example I-604]: the IC50 in the experiment with MV4-11 cells is 0.1 to 0.5 µM; on BRD4 BD1, less than 0.1 µM; on BRD4 BD2 it was 0.05 to 0.5 µM.

For `CC(=O)N1c2ccc(-c3cnn(Cc4cncs4)c3)cc2N(C(=O)C2CC2)C[C@@H]1C` [Example I-686], the IC50 in the experiment on MV4-11 cells was 0.1 to 0.5 µM; at BRD4 BD1, 0.1 to 1 µM; at BRD4 BD2 it was 0.05 to 0.5 µM.

On to `CC(=O)N1c2ccc(-c3ccc(-c4ccccc4)cc3)cc2N(C(=O)c2ccco2)C[C@@H]1C` [Example I-798], for which the IC50 in the experiment on MV4-11 cells is more than 0.5 µM; at BRD4 BD1 it was 1 to 10 µM; at BRD4 BD2 it was 0.05 to 0.5 µM.

With `CC(=O)N1c2ccc(-c3cnn(C4COC4)c3)cc2N(C(=O)Oc2cccnc2)C[C@@H]1C` [Example I-89, (S)-pyridin-3-yl 4-acetyl-3-methyl-7-(1-(oxetan-3-yl)-1H-pyrazol-4-yl)-3,4-dihydroquinoxaline-1(2H)-carboxylate], the values for the IC50 with MV4-11 cells, at BRD4 BD1 and on BRD4 BD2 were 0.1 to 0.5 µM, less than 0.1 µM and less than 0.05 µM, respectively.

As to `CC(=O)N1c2ccc(-c3ccc4c(c3)CCN4S(C)(=O)=O)cc2N(C(=O)c2ccco2)C[C@@H]1C` [Example I-299], the IC50 is 0.1 to 0.5 µM in the experiment on MV4-11 cells, 0.1 to 1 µM at BRD4 BD1 and 0.05 to 0.5 µM at BRD4 BD2.

For the compound `CC(=O)N1c2ccc(-c3ccc(S(=O)(=O)CCO)cc3)cc2N(C(=O)OC(C)C)C[C@@H]1C` [Example I-478], the IC50 with MV4-11 cells was 0.1 to 0.5 µM; at BRD4 BD1 it was 0.1 to 1 µM; at BRD4 BD2 it was 0.05 to 0.5 µM.

Regarding `CC(=O)N1c2ccc(-c3ccc(CS(N)(=O)=O)cc3)cc2N(C(=O)C2CC2)C[C@@H]1C` [Example I-445], the IC50 in the experiment on MV4-11 cells is 0.1 to 0.5 µM; on BRD4 BD1 it was 0.1 to 1 µM; on BRD4 BD2, 0.05 to 0.5 µM.

Consider `COC(=O)N1c2ccc(-c3cnn(CC(=O)N(C)C4CC4)c3)cc2N(C(=O)OC(C)C)C[C@@H]1C` [Example I-625], for which the IC50 is more than 0.5 µM with MV4-11 cells, 0.1 to 1 µM at BRD4 BD1 and 0.05 to 0.5 µM at BRD4 BD2.

Turning to `CC(=O)N1c2ccc(-c3cnn(C4COC4)c3)cc2N(C(=O)OC2COC2)C[C@@H]1C` [Example I-59, (S)-oxetan-3-yl 4-acetyl-3-methyl-7-(1-(oxetan-3-yl)-1H-pyrazol-4-yl)-3,4-dihydroquinoxaline-1(2H)-carboxylate], the IC50 in the experiment on MV4-11 cells was more than 0.5 µM; at BRD4 BD1, 0.1 to 1 µM; at BRD4 BD2 it was 0.05 to 0.5 µM.

Turning to `CC(=O)N1c2ccc(-c3ccc(S(=O)(=O)NCCO)cc3)cc2N(C(=O)OC2CCOCC2)C[C@@H]1C` [Example I-1218], the IC50 was in the range of 0.1 to 0.5 µM in the experiment on MV4-11 cells, 0.1 to 1 µM at BRD4 BD1 and 0.05 to 0.5 µM at BRD4 BD2.

For the compound `CC(=O)N1c2ccc(-c3cnn(Cc4cnccn4)c3)cc2N(C(=O)C2CC2)C[C@@H]1C` [Example I-123, (S)-1-(4-(cyclopropanecarbonyl)-2-methyl-6-(1-(pyrazin-2-ylmethyl)-1H-pyrazol-4-yl)-3,4-dihydroquinoxalin-1(2H)-yl)ethanone], the IC50 is more than 0.5 µM with MV4-11 cells, 1 to 10 µM on BRD4 BD1 and 0.05 to 0.5 µM on BRD4 BD2.

On to `CC(=O)N1c2ccc(-c3cnn(Cc4ccno4)c3)cc2N(C(=O)C2CC2)C[C@@H]1C` [Example I-663], for which the IC50 fell in the range of 0.1 to 0.5 µM in the experiment on MV4-11 cells, 0.1 to 1 µM on BRD4 BD1 and 0.05 to 0.5 µM on BRD4 BD2.

On to `CC(=O)N1c2ccc(-c3cnn(C4CC4)c3)cc2N(C(=O)Oc2ccc(-n3cncn3)cc2)C[C@@H]1C` [Example I-1194], for which the IC50 in the experiment with MV4-11 cells was 0.1 to 0.5 µM; on BRD4 BD1 it was 0.1 to 1 µM; at BRD4 BD2 it was 0.05 to 0.5 µM.

As to `CCOC(=O)N1C[C@H](C)N(C(C)=O)c2ccc(-c3ccc(OC)c(N4CCCS4(=O)=O)c3)cc21` [Example I-1169], the IC50 was in the range of 0.1 to 0.5 µM in the experiment with MV4-11 cells, 0.1 to 1 µM on BRD4 BD1 and 0.05 to 0.5 µM on BRD4 BD2.

Turning to `CC(=O)N1c2ccc(-c3cnn(C4CC4)c3)cc2N(C(=O)OC2CCOCC2)C[C@@H]1C` [Example I-1000], the IC50 was 0.1 to 0.5 µM in the experiment on MV4-11 cells, less than 0.1 µM at BRD4 BD1 and 0.05 to 0.5 µM on BRD4 BD2.

As to `CC(=O)N1c2ccc(-c3cnn(C4COC4)c3)cc2N(C(=O)OCC2CCC2)C[C@@H]1C` [Example I-60, (S)-cyclobutylmethyl 4-acetyl-3-methyl-7-(1-(oxetan-3-yl)-1H-pyrazol-4-yl)-3,4-dihydroquinoxaline-1(2H)-carboxylate], the values for the IC50 in the experiment on MV4-11 cells, on BRD4 BD1 and at BRD4 BD2 were 0.1 to 0.5 µM, 0.1 to 1 µM and 0.05 to 0.5 µM, respectively.

As for `CC(=O)N1c2ccc(-c3cnn(Cc4cc(C)on4)c3)cc2N(C(=O)C2CC2)C[C@@H]1C` [Example I-669], the IC50 is more than 0.5 µM with MV4-11 cells, 0.1 to 1 µM on BRD4 BD1 and 0.05 to 0.5 µM at BRD4 BD2.

In the case of `CC(=O)N1c2ccc(-c3cnn(CC4(C)COC4)c3)cc2N(C(=O)OC(C)C)C[C@@H]1C` [Example I-605], the IC50 lay within 0.1 to 0.5 µM in the experiment on MV4-11 cells, 0.1 to 1 µM on BRD4 BD1 and 0.05 to 0.5 µM at BRD4 BD2.

For the origin of these results see US10703764B2, “Benzopiperazine compositions as BET bromodomain inhibitors” (FORMA Therapeutics, Inc., priority 2013, dated 2020).
